Data taken from US20240368239A1, “Novel bispecific protein and use thereof” (SL METAGEN, priority 2020, published 2024).

System: B6 normal mice
Experiment: Fluorescence spectrometry tissue distribution of Cy5.5-labelled substances
Assay type: in vivo
Details: 24 hours after administration, Cy5.5 label
Protocol: Next, the present inventors performed an experiment in B6 normal mice in order to observe the distribution in each tissue and organ according to the administration of a bispecific fusion protein according to an embodiment of the present invention. Cy5.5 was used as a fluorophore for tracking the distribution after administration of each substance. Buffer exchange was performed for each substance to be administered, MG12-1, MG12-4, and GLP-1Fc homodimer with boric acid buffer (pH 8.5), and with reference to the protocol of the Cy5.5 labeling kit (GE, #PA15605) were allowed to react with an appropriate amount of Cy5.5 overnight under refrigeration conditions. Unreacted Cy5.5 in the reaction-completed substance was removed through the PBS substitution process, and whether Cy5.5 was reacted well was confirmed through the final SDS-PAGE. Each administered substance was diluted with 10% DMSO/PBS to have the same fluorescence intensity using an ELISA plate reader capable of measuring fluorescence intensity before being administered.

Average fluorescence intensity, Brain: 0
Average fluorescence intensity, Large intestine: 0
Average fluorescence intensity, Small intestine: 0
Substance: Cy5.5 [reference compound]
